Results from patent US9096591B2, “Tetracyclic compounds” (Medivation Technologies, Inc., priority 2007, dated 2015).
Where two headings read alike, the source gives them in different places.

What was measured:
[1] = molecular target: T1, human recombinant adrenergic α2B receptor (Homo sapiens, UniProt P18089); test: Adrenergic α2B radioligand binding ([3H]Rauwolscine); set-up: Inhibition of ligand binding, Adren. alpha2B: concentration or dose not given beside the values; conditions: percent inhibition of specific binding
T1 construct: expressed in transfected cells; host or cells: CHO-K1 cells
T1 sequence (P18089 1-450): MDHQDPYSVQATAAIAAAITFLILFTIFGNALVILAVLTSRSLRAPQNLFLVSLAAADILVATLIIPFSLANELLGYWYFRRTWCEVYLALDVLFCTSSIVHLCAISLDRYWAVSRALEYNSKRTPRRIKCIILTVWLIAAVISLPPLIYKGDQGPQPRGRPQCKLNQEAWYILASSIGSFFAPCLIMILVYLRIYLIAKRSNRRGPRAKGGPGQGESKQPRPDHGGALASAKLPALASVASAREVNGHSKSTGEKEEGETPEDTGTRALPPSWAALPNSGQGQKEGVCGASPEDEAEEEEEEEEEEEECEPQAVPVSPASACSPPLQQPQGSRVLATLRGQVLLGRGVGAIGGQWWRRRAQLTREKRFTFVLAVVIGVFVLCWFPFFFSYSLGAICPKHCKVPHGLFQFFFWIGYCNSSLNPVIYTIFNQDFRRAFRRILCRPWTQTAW
Outline: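 Incubation ran 60 minutes at 25 °C in modified Tris-HCl buffer (50 mM, pH 7.4, 12.5 mM MgCl2, 1 mM EDTA, 0.2% BSA) using CHO-K1-expressed human receptor.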

[2] = molecular target: T2, human recombinant dopamine D2L receptor (Homo sapiens, UniProt P14416); test: Dopamine D2L radioligand binding ([3H]Spiperone); conditions: percent inhibition of specific binding
T2 construct: expressed in transfected cells; host or cells: CHO cells
T2 sequence (P14416 whole entry): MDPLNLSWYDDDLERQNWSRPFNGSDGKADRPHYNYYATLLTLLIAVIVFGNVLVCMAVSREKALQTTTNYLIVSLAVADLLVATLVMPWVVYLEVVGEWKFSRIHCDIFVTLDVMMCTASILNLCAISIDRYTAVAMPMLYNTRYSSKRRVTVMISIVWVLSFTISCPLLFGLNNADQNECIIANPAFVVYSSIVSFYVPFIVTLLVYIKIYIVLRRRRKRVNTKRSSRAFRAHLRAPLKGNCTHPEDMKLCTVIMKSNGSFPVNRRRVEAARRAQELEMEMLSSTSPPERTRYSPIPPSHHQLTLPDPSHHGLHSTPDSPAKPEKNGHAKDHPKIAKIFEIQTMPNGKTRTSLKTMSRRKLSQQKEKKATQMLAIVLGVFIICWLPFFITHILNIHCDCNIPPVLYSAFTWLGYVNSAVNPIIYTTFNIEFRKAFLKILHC
Experimental: Non-specific binding was estimated in the presence of 10 μM Haloperidol. Receptor proteins were filtered and washed, the filters were then counted to determine [^3H]Spiperone specifically bound. […] Biochemical assay results are presented as the percent inhibition of specific binding in Table 6.

[3] = molecular target: T3, human recombinant serotonin (5-Hydroxytryptamine) 5-HT6 receptor (Homo sapiens, UniProt P50406); test: Serotonin 5-HT6 radioligand binding ([3H]LSD); set-up: Inhibition of ligand binding, Ser. 5-HT6: concentration or dose not given beside the values; conditions: percent inhibition of specific binding
T3 construct: expressed in transfected cells; host or cells: human HeLa cells
T3 sequence (P50406 whole entry): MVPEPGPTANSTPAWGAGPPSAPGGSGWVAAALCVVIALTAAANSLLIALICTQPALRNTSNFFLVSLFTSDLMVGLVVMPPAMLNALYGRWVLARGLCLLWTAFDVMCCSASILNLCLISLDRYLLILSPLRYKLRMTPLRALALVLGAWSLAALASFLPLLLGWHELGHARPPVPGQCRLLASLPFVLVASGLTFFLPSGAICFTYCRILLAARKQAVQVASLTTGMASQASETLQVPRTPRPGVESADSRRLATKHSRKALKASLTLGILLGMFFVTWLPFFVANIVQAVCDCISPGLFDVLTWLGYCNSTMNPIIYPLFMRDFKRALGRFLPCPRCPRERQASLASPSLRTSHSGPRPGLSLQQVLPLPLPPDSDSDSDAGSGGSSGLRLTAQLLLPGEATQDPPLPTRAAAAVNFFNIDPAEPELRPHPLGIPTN
Text: Receptor proteins were filtered and washed, the filters were then counted to determine [3H]LSD specifically bound. […] Biochemical assay results are presented as the percent inhibition of specific binding in Table 6.

[4] = molecular target: T4, Serotonin (5-Hydroxytryptamine) 5-HT7 (Homo sapiens, UniProt P34969); test: Serotonin 5-HT7 radioligand binding ([3H]LSD); set-up: Inhibition of ligand binding, Ser. 5-HT7: concentration or dose not given beside the values; conditions: percent inhibition of specific binding
T4 construct: expressed in transfected cells; host or cells: CHO cells
T4 sequence (P34969 whole entry): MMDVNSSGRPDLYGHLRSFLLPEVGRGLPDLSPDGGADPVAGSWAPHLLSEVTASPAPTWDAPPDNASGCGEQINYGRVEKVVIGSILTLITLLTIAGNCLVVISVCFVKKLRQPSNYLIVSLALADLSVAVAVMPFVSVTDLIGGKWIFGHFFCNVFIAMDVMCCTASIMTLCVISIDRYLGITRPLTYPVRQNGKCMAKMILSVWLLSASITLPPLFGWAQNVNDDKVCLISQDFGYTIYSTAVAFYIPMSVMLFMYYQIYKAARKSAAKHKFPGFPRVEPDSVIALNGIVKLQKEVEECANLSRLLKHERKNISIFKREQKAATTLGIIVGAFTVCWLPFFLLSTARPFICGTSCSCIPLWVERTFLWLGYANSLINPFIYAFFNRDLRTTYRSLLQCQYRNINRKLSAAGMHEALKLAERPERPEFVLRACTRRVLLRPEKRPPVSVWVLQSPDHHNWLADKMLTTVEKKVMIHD
Experimental: Lysergic acid diethylamide (LSD) for 2 hours at 25° C. […] Receptor proteins were filtered and washed, the filters were then counted to determine [^3H]LSD specifically bound. […] Biochemical assay results are presented as the percent inhibition of specific binding in Table 6.

rat brain mitochondria = test: Ca2+-induced swelling of mitochondria (MPT pore opening); assay type: biochemical, Wistar rats; conditions: for A540 increase in mitochondrial suspension after addition of 100 μM of compound: 100 μM compound
Experimental: Rat liver and brain mitochondria were prepared from male Wistar rats. The rats were euthanized in a CO2 chamber followed by decapitation the procedure being in compliance with the Guidelines for Animal Experiments at IPAC RAS. […]
Brain mitochondria were isolated from the pooled forebrains of two rats. The modified method of Sims was used to isolate and purify brain mitochondria in a Percoll gradient. The brain was homogenized in “buffer A” (225 mM mannitol, 75 mM sucrose, 5 mM HEPES, 1 mM EGTA, pH 7.4 [KOH]) and centrifuged for 10 min at 1300 g. The supernatant was centrifuged for 10 min at 10000 g, and then the pellet was suspended in 15% Percoll and layered on a discontinuous gradient consisting of 40 and 23% Percoll, respectively, which was then centrifuged for 10 min at 30000 g without using brakes. The mitochondria were collected from the interface of the lower two layers and after resuspension in “buffer A”, the suspension was centrifuged at 16600 g for 10 min, then the pellet was resuspended in “buffer A”, BSA (10 mg/mL) was added to bind free fatty acids; and the suspensions was centrifuged again at 6300 g for 10 min. Following centrifugation the pelleted mitochondria were re-suspended in isolation medium without EGTA to achieve a protein concentration of 15-20 mg/ml.
Mitochondrial swelling caused by influx of solutes through open PT pores results in an increase in light transmission (i.e., a reduced turbidity). This turbidity change offers a convenient and frequently used assay of the MPT by measurement of absorbance in mitochondrial suspensions. In the present study, the MPT induced by Ca^2+ and inorganic phosphate (Ca/Pi) was monitored by absorbance changes at 540 nm in a cuvette in a Beckman DU 640 spectrophotometer in 1 ml of buffer A plus 0.8 μM rotenone, 5 mM succinate, 1 mM KH2PO4 and 0.5 mg or 0.2 mg protein of isolated liver or brain mitochondria, accordingly. Reaction was started by the addition of triggering agent (Ca^2+). Pre-treatment and reaction were performed at 30° C. Swelling rate was quantified as ΔA540/min/mg, calculated, in all cases, from a tangent to the steepest portion of the plot of A540 versus time.
Ca^2+-induced Swelling of mitochondria was used as the primary screening test for compounds influence on MPT pore opening. […] But the inhibition of swelling may be connected not only with direct inhibition of MPT pore opening but also with the impairment of respiratory function of mitochondria and with the compounds action on calcium transport into mitochondria. For the primary estimation of these possibilities the mitochondrial membrane potential and calcium retention capacity of mitochondria were measured. […] New synthesized compounds (except C-14 and C-43) alone induced an increase of brain mitochondria suspension turbidity. The mechanism of such effect needs additional investigations.

[5] = read-out: IC50, Ca2+-induced (25-50 μM) swelling of brain mitochondria, rat brain mitochondria, Ca2+ 25-50 μM

Structure (SMILES) | Inhibition of ligand binding, Adren. alpha2B [1] [%] | Inhibition of ligand binding, Dop. D2L [2] [%] | Inhibition of ligand binding, Ser. 5-HT6 [3] [%] | Inhibition of ligand binding, Ser. 5-HT7 [4] [%] | IC50 (rat brain mitochondria; concentration reducing to 50% the initial rate of turbidity fall after calcium addition, read-out: IC50, decrease of calcium-induced swelling of brain mitochondria) [µM] | A540 increase in mitochondrial suspension after addition of 100 μM of compound (rat brain mitochondria; rat brain mitochondria) [rel.units] | IC50 (rat brain mitochondria; [5]) [µM]
CN1CCc2c(c3cc(Cl)ccc3n2CCc2ccc(C(F)(F)F)nc2)C1 [Compound 250] | 108 | 21 | 84 | 93 | – | – | –
CN1CCc2c(c3cc(Cl)ccc3n2CCc2nc(-c3ccccc3)cs2)C1 [Compound C1-8] | – | – | – | – | ~6 | 25 | 6.25 ± 6.25
Cc1ccc2c(c1)c1c(n2CCc2ccc(C)nc2)CCN(C)C1 [Dimebon, dimebon, reference compound] | 112 | 41 | 95 | – | – | 1 | 66 ± 26
